According to ChEMBL document CHEMBL1156468, “Crystal structures of Saccharomyces cerevisiae N-myristoyltransferase with bound myristoyl-CoA and inhibitors reveal the functional roles of the N-terminal region” (J Biol Chem, 2007):
Numbering of substitutions follows the chain as printed. Numbers in names are those of the source.

How the values were obtained:
[1] = target: T1, Glycylpeptide N-tetradecanoyltransferase (Saccharomyces cerevisiae S288c, UniProt P14743); assay: Inhibition of Saccharomyces cerevisiae NMT
T1 sequence (P14743 whole entry): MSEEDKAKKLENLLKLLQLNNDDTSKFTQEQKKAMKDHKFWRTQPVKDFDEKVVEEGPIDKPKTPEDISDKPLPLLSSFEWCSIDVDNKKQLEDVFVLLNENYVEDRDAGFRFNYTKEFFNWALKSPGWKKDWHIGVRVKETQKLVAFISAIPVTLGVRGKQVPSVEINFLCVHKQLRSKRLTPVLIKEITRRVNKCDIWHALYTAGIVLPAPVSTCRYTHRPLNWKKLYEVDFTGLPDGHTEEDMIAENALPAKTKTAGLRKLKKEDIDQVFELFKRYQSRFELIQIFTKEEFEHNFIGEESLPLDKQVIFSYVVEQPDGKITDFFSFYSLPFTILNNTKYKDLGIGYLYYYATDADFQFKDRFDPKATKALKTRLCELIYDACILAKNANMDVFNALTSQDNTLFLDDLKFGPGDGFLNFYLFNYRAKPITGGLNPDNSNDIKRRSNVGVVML

Saccharomyces cerevisiae [2] = assay: Activity of Saccharomyces cerevisiae NMT D22K/D23K mutant assessed as production of coenzyme A after 1 hr
Saccharomyces cerevisiae [3] = assay: Activity of Saccharomyces cerevisiae NMT NMT delta1-20 mutant assessed as production of coenzyme A after 1 hr
Saccharomyces cerevisiae [4] = assay: Activity of Saccharomyces cerevisiae NMT NMT delta1-30 mutant assessed as production of coenzyme A after 1 hr
Saccharomyces cerevisiae [5] = assay: Activity of Saccharomyces cerevisiae NMT NMT delta1-40 mutant assessed as production of coenzyme A after 1 hr
Saccharomyces cerevisiae [6] = assay: Ratio of kcat to Km for Saccharomyces cerevisiae NMT D22K/D23K mutant
Saccharomyces cerevisiae [7] = assay: Ratio of kcat to Km for Saccharomyces cerevisiae NMT delta1-20 mutant
Saccharomyces cerevisiae [8] = assay: Ratio of kcat to Km for Saccharomyces cerevisiae NMT delta1-30 mutant
Saccharomyces cerevisiae [9] = assay: Ratio of kcat to Km for Saccharomyces cerevisiae NMT delta1-40 mutant
[10] = substrate: CC(C)C[C@H](NC(=O)CN)C(=O)N[C@@H](Cc1ccccc1)C(=O)N[C@@H](C)C(=O)N[C@@H](CO)C(=O)N[C@@H](CCCCN)C(=O)N[C@@H](CC(C)C)C(=O)N[C@@H](Cc1ccccc1)C(=O)O; assay: Activity of Saccharomyces cerevisiae wild type NMT assessed as production of coenzyme A after 1 hr
[11] = substrate: CC(C)C[C@H](NC(=O)CN)C(=O)N[C@@H](Cc1ccccc1)C(=O)N[C@@H](C)C(=O)N[C@@H](CO)C(=O)N[C@@H](CCCCN)C(=O)N[C@@H](CC(C)C)C(=O)N[C@@H](Cc1ccccc1)C(=O)O; assay: Ratio of kcat to Km for Saccharomyces cerevisiae wild type NMT
[12] = substrate: CC(C)C[C@H](NC(=O)CN)C(=O)N[C@@H](Cc1ccccc1)C(=O)N[C@@H](C)C(=O)N[C@@H](CO)C(=O)N[C@@H](CCCCN)C(=O)N[C@@H](CC(C)C)C(=O)N[C@@H](Cc1ccccc1)C(=O)O; assay: Activity of Saccharomyces cerevisiae NMT D22A mutant assessed as production of coenzyme A after 1 hr
[13] = substrate: CC(C)C[C@H](NC(=O)CN)C(=O)N[C@@H](Cc1ccccc1)C(=O)N[C@@H](C)C(=O)N[C@@H](CO)C(=O)N[C@@H](CCCCN)C(=O)N[C@@H](CC(C)C)C(=O)N[C@@H](Cc1ccccc1)C(=O)O; assay: Ratio of kcat to Km for Saccharomyces cerevisiae NMT D22A mutant
[14] = substrate: CC(C)C[C@H](NC(=O)CN)C(=O)N[C@@H](Cc1ccccc1)C(=O)N[C@@H](C)C(=O)N[C@@H](CO)C(=O)N[C@@H](CCCCN)C(=O)N[C@@H](CC(C)C)C(=O)N[C@@H](Cc1ccccc1)C(=O)O; assay: Activity of Saccharomyces cerevisiae NMT T24D mutant assessed as production of coenzyme A after 1 hr
[15] = substrate: CC(C)C[C@H](NC(=O)CN)C(=O)N[C@@H](Cc1ccccc1)C(=O)N[C@@H](C)C(=O)N[C@@H](CO)C(=O)N[C@@H](CCCCN)C(=O)N[C@@H](CC(C)C)C(=O)N[C@@H](Cc1ccccc1)C(=O)O; assay: Ratio of kcat to Km for Saccharomyces cerevisiae NMT T24D mutant
[16] = substrate: CC(C)C[C@H](NC(=O)CN)C(=O)N[C@@H](Cc1ccccc1)C(=O)N[C@@H](C)C(=O)N[C@@H](CO)C(=O)N[C@@H](CCCCN)C(=O)N[C@@H](CC(C)C)C(=O)N[C@@H](Cc1ccccc1)C(=O)O; assay: Activity of Saccharomyces cerevisiae NMT D22K mutant assessed as production of coenzyme A after 1 hr
[17] = substrate: CC(C)C[C@H](NC(=O)CN)C(=O)N[C@@H](Cc1ccccc1)C(=O)N[C@@H](C)C(=O)N[C@@H](CO)C(=O)N[C@@H](CCCCN)C(=O)N[C@@H](CC(C)C)C(=O)N[C@@H](Cc1ccccc1)C(=O)O; assay: Ratio of kcat to Km for Saccharomyces cerevisiae NMT D22K mutant

`Cc1nccn1CCCCc1ccc(CC(=O)N[C@@H](CO)C(=O)N[C@@H](CCCCN)C(=O)NCCC2CCCCC2)cc1` [SC-58272] was tested, and the IC50 [1] was 24 nM.

`CCCCCCCCCCCCCC(=O)CSCCNC(=O)CCNC(=O)C(O)C(C)(C)COP(=O)(O)OP(=O)(O)OC[C@H]1O[C@@H](n2cnc3c(N)ncnc32)[C@H](O)[C@@H]1OP(=O)(O)O` (stereo partly specified) showed an IC50 [1] of 50 nM.

H-GLFASKLF-OH gave a Km (Saccharomyces cerevisiae [2]) of 150 µM, a kcat (Saccharomyces cerevisiae [2]) of 4.73 s⁻¹ and a Km (Saccharomyces cerevisiae [3]) of 27.7 µM. The kcat (Saccharomyces cerevisiae [3]) was 3.58 s⁻¹, the Km (Saccharomyces cerevisiae [4]) was 159 µM and the kcat (Saccharomyces cerevisiae [4]) was 3.85 s⁻¹. For the same molecule, the Km (Saccharomyces cerevisiae [5]) was 162 µM, the kcat (Saccharomyces cerevisiae [5]) was 4.03 s⁻¹ and the kcat/Km (Saccharomyces cerevisiae [6]) was 3.16 ×10⁴ /M/s. It also gave a kcat/Km (Saccharomyces cerevisiae [7]) of 1.29 ×10⁵ /M/s, a kcat/Km (Saccharomyces cerevisiae [8]) of 2.43 ×10⁴ /M/s and a kcat/Km (Saccharomyces cerevisiae [9]) of 2.48 ×10⁴ /M/s.

B1: Glycylpeptide N-tetradecanoyltransferase (Saccharomyces cerevisiae S288c), P14743 (protein)
chain: T1 sequence (P14743 whole entry)
With B1 the Km [10] was 13.7 µM, the kcat [10] was 3.06 s⁻¹ and the kcat/Km [11] was 2.24 ×10⁵ /M/s.

B2: Glycylpeptide N-tetradecanoyltransferase (Saccharomyces cerevisiae S288c), P14743 D22A (protein)
chain: T1 sequence (P14743 whole entry) with D22A
B2 showed a Km [12] of 19 µM, a kcat [12] of 1.72 s⁻¹ and a kcat/Km [13] of 9.03 ×10⁴ /M/s.

B3: Glycylpeptide N-tetradecanoyltransferase (Saccharomyces cerevisiae S288c), P14743 T24D (protein)
chain: T1 sequence (P14743 whole entry) with T24D
Work on B3 yielded a Km [14] of 41.6 µM, a kcat [14] of 2.77 s⁻¹ and a kcat/Km [15] of 6.67 ×10⁴ /M/s.

B4: Glycylpeptide N-tetradecanoyltransferase (Saccharomyces cerevisiae S288c), P14743 D22K (protein)
chain: T1 sequence (P14743 whole entry) with D22K
For B4, the Km [16] was 23.8 µM, the kcat [16] was 2.5 s⁻¹ and the kcat/Km [17] was 1.05 ×10⁵ /M/s.
